This is an account of results in PMC10135050, “Neutralizing Carbapenem Resistance by Co-Administering Meropenem with Novel β-Lactam-Metallo-β-Lactamase Inhibitors” (Antibiotics, 2023).

The term MIC denotes the smallest concentration in the dilution series that meets the test's criterion for growth inhibition.

Read-outs that look alike come from different tables or passages of the source.

Data set [1] has as its system Enterobacter cloacae IR 386 (NDM-1). The experiment in a line: MIC, broth microdilution and checkerboard assay. It counts as cell-based. The method, then: (§1) The Minimum Inhibitory Concentration (MIC) of meropenem BP2 was determined utilizing the broth microdilution assay, as described by the Clinical and Laboratory Standards Institute (CLSI) antimicrobial susceptibility guidelines. The mono-therapeutic effect of each antibiotic and MBLI was evaluated across a panel of MBL-producing Enterobacterales.
(§2) The drug susceptibility profile of meropenem in combination with BP2 was studied using the checkerboard assay. This assay was used to ascertain the effect of two drugs on antimicrobial resistance targeting CRE strains. The assay was performed according to the protocol described previously and was under CLSI antimicrobial susceptibility guidelines. Briefly, twofold dilutions of meropenem with each chelator were made in Cation-adjusted Mueller Hinton Broth (CAMHB) in a 96-well microtiter plate. A 0.5 McFarland-standardized bacterial inoculum was added to each well to obtain a final volume of 100 µL per well. Thereafter, plates were incubated at 37 °C for 18 h under aerobic conditions. The checkerboard assays were performed in triplicate. The MIC was determined as the lowest concentration at which no visible growth was present. The fractional inhibitory concentration index (FICI) was calculated for each combination according to the equation FICI = FICa (MIC of drug A in combination/MIC of drug A alone) + FICb (MIC of drug B in combination/MIC of drug B alone). The FICI was interpreted as follows: synergy, FICI ≤ 0.5; additive 0.5–1; indifference, […] FICI < 4; and antagonism, FICI ≥ 4 [61].
Background: Broth dilution looks for growth in wells or tubes with falling amounts of substance.

In data set [2] the test system is Enterobacter cloacae KAR (VIM-1). Briefly: MIC, broth microdilution and checkerboard assay. It counts as cell-based. On the procedure:
as §1, §2

Data set [3] has as its system Escherichia coli AUS 271 (NDM-1). Briefly: MIC, broth microdilution and checkerboard assay. It counts as cell-based. On the procedure: as §1, §2
Data set [4] deals with Escherichia coli BM 14 (VIM-1). Briefly: MIC, broth microdilution and checkerboard assay. It counts as cell-based. The method, then:
as §1, §2

Data set [5] deals with Escherichia coli DIH (VIM-19). Briefly: MIC, broth microdilution and checkerboard assay. It counts as cell-based. The method, then: as §1, §2
Data set [6] concerns Klebsiella pneumoniae DIH (VIM-19). Briefly: MIC, broth microdilution and checkerboard assay. It counts as cell-based. The method, then: as §1, §2
The subject of data set [7] is Providencia Rettgeri IR38 (NDM-1). Briefly: MIC, broth microdilution and checkerboard assay. It counts as cell-based. The method, then: as §1, §2
The subject of data set [8] is Serratia marcescens BM 20 (VIM-2). The experiment in a line: MIC, broth microdilution and checkerboard assay. It counts as cell-based. On the procedure: as §1, §2
Data set [9] in a line: Single-dose pharmacokinetic experiment. It counts as in vivo. Particulars: for Time of peak concentration (Cmax) after drug administration: single dose, plasma. On the procedure:
In order to evaluate BP2’s potential to act synergetically with antibacterial agents such as meropenem in vivo, we next performed a single-dose pharmacokinetic experiment to ensure an appropriate dosing schedule for achieving a safe and therapeutic concentration of BP2 in plasma. […] Constant concentrations were then reached after two hours. A plasma concentration of 1.93 µg/L was obtained with a dose of 10 mg/kg.b.w. This was far below the cytotoxicity concentrations seen in the cell viability assays, advocating for the safe increase in the treatment dose to 100 mg/kg.b.w, which allowed us to reach therapeutic concentrations (Figure 6) in plasma without the possibility of toxicity. In vivo efficacy studies were undertaken to assess the potency of BP2 in a murine infection model. This five-day animal trial was initiated by immune-suppressing the mice with cyclophosphamide to allow the progression of infection and allow BP2 + meropenem treatment to be studied over eight hours on day five of the trial. In addition, it excludes the effects of the innate immune response as a potential variable. This is important since many carbapenem-resistant infections are acquired as secondary infections in immune-suppressed hosts. The mice were successfully infected with Klebsiella pneumoniae NDM, evidenced by visible inflammation of the localized area; this correlated with the cfu/thigh data expressed (Tables S1–S3). Three treatment regimens of S (saline only), M (meropenem only), and BP2 combination therapy (BP2 + meropenem) were used to randomly categorize mice.
A Shimadzu Nexera Series (Shimadzu Corporation, Kyoto, Japan) liquid chromatography system was coupled with Shimadzu LCMS-8050 tandem mass spectrometer (Shimadzu, Kyoto, Japan). […] Quantitative and qualitative studies were conducted using MRM mode via an ESI interface, with the following source parameters: nitrogen nebulizer gas flow 3 L/min; heat gas 10 L/min and interface temperature of 300 °C. […] Results were analyzed using LabSolutions Insight LCMS. All data are expressed as a mean ± SD.

Data set [10] is described as follows: Plasma drug concentrations in the in vivo efficacy study. Particulars: male, mouse, 100 mg/kg IP every two hours, infected BALB/c mice. On the procedure: A murine thigh infection model described by Michail et al. was performed with minor modifications. Male Bragg inbred albino c-strain (BALB/c) mice weighing 20–25 g (n = 90) were used in this study. Each of the three groups constituted n = 30 mice, with n = 6 mice receiving treatment every two hours. Prior to infection, mice were IP treated with 150 mg/kg cyclophosphamide on day one and 100 mg/kg on day four of the trial. This was performed to induce neutropenia in the mice. Neutropenia was confirmed by a neutrophil count of <100/mm^3. On day five of the trial, 0.1 mL inoculum containing 10^6–10^8 cfu/mL of K. pneumoniae NDM were IM injected into the right thigh of the mice to initiate infection. Meropenem monotherapy, BP2 + meropenem combination therapy, or normal saline was administered every two hours in an eight-hour treatment period. Mice were euthanized by isoflurane overdose at 2 h, 4 h, 6 h and 8 h post dosing. The right thigh muscle was then aseptically removed and homogenized in 5 mL PBS. Homogenates were spread onto Mueller–Hinton agar and MacConkey agar plates, followed by incubation at 35 °C for 24 h and enumeration of the cfu/mL.
A Shimadzu Nexera Series (Shimadzu Corporation, Kyoto, Japan) liquid chromatography system was coupled with Shimadzu LCMS-8050 tandem mass spectrometer (Shimadzu, Kyoto, Japan). The chromatographic separation was achieved using a Shim-Pack Velox SP-C18 column (100 mm × 2.1 mm, 2.7 µm particle size) with a gradient mobile phase comprised of Millipore water (0.1% v/v trifluoroacetic acid) (A) and Acetonitrile (0.1% v/v trifluoroacetic acid) (B). The gradient method started from 5 to 95% B in 8 min, then held at 95% B for up to 12 min; thereafter, it was brought back to 5% B at 12.1 min. The column was equilibration time was 2.9 min with a flow rate of 0.4 mL min^−1 and the column oven temperature at 40 °C. The injection volume was 25 µL, and the total run time of the method was 15 min. Quantitative and qualitative studies were conducted using MRM mode via an ESI interface, with the following source parameters: nitrogen nebulizer gas flow 3 L/min; heat gas 10 L/min and interface temperature of 300 °C. The precursor and product ions optimized were m/z 813.2→330.0 for BP2, m/z 384.50→68.25 for meropenem and m/z 350.50→304.40 for Ampicillin (IS). Results were analyzed using LabSolutions Insight LCMS. All data are expressed as a mean ± SD.
Figure 6 Plasma BP2 and meropenem concentrations over the eight-hour treatment period. BALB/c mice were infected intramuscularly (IM) in the right thigh with 10^6–10^8 K. pneumoniae NDM cfu/mL. Treatment was initiated two hours post infection with either S, M, or BP2. Four treatment doses were administered via intraperitoneal (IP) injection every two hours. Data are presented as a mean ± SD (n = 6). Meropenem-only (red triangle)—animals treated with meropenem only, Meropenem with BP2 (red circles)—meropenem concentration when animals were treated with the BP2 combination. BP2 with meropenem (green square)—concentration of BP2 when animals were treated with the meropenem combination.

With `CON=C(C(=O)NC1C(=O)N2C(C(=O)O)=C(COC(C)=O)CSC12)c1csc(NC(=O)CC(C(=O)OC)N2CCN(CC(=O)O)CCN(CC(=O)O)CC2)n1` (stereo in doubt) [BP2], the minimum inhibitory concentration (MIC) in data set [1] (read-out: MIC BP2 Alone), in data set [2] (read-out: MIC BP2 Alone), in data set [3] (read-out: MIC BP2 Alone), in [4] (read-out: MIC BP2 Alone), in data set [5] (read-out: MIC BP2 Alone) and in data set [6] (read-out: MIC BP2 Alone) was over 256 µg/mL each time. Besides, the MIC in data set [7] (read-out: MIC BP2 Alone) and in data set [8] (read-out: MIC BP2 Alone) was over 256 µg/mL each time. Further, the Plasma concentration in [9] (dose of 10 mg/kg.b.w) is 1.93 ng/mL. In addition, the “Time of peak concentration (Cmax) after drug administration” value in [9] was 15 min. For the same compound, the concentration at 2 h in data set [10] was 2670 ng/mL. Besides, the concentration at 4 h in data set [10] was 6970 ng/mL. The concentration at 6 h in data set [10] was 4430 ng/mL. Also, the concentration at 8 h in [10] was 3490 ng/mL.

For `C[C@@H](O)[C@H]1C(=O)N2C(C(=O)O)=C(S[C@@H]3CN[C@H](C(=O)N(C)C)C3)[C@H](C)[C@H]12` [Meropenem], the MIC in data set [1] (E. cloacae IR 386 NDM-1, alone, read-out: MIC MEM Alone) was 32 µg/mL; in [2] (E. cloacae KAR VIM-1, alone, read-out: MIC MEM Alone) it was 4 µg/mL; in data set [3] (E. coli AUS 271 NDM-1, alone, read-out: MIC MEM Alone), over 128 µg/mL; in data set [4] (E. coli BM 14 VIM-1, alone, read-out: MIC MEM Alone) it was 32 µg/mL; in data set [5] (E. coli DIH VIM-19, alone, read-out: MIC MEM Alone), over 32 µg/mL; in [6] (K. pneumoniae DIH VIM-19, alone, read-out: MIC MEM Alone) it was 32 µg/mL. Besides, the minimum inhibitory concentration (MIC) in data set [7] (P. Rettgeri IR38 NDM-1, alone, read-out: MIC MEM Alone) was 32 µg/mL; in data set [8] (S. marcescens BM 20 VIM-2, alone, read-out: MIC MEM Alone), over 32 µg/mL. Moreover, the “Time of peak concentration (Cmax) after drug administration” value in data set [9] is on record as 15 min. In addition, the concentration at 2 h in [10] was 7060 ng/mL. The concentration at 4 h in data set [10] came to 27500 ng/mL. Also, the concentration at 6 h in data set [10] was determined as 14900 ng/mL. In [10], the concentration at 8 h is 8840 ng/mL.
